Test results published in ChEMBL document CHEMBL3045040, “Synthesis and antiproliferative activity of 1-[(sub)]-6-fluoro-3-[(sub)]-1, 3,4-oxadiazol-2-yl-7-piperazino-1, 4-dihydro-4-quinolinone derivatives” (Med Chem Res, 2007).
In brackets after ≈: the same amount, converted by molar mass.

The compounds below were run on A549 (assay: Cytotoxicity against Homo sapiens (human) A549 cells assessed as cell viability by MTT assay).
Format: functional, cell-based
`CCn1cc(-c2nnc(-c3ccc([N+](=O)[O-])cc3)o2)c(=O)c2cc(F)c(N3CCNCC3)cc21` gave an IC50 of 74.3 µg/mL (≈ 160 µM). Work on `O=c1c(-c2nnc(-c3ccc([N+](=O)[O-])cc3)o2)cn(C2CC2)c2cc(N3CCNCC3)c(F)cc12` yielded an IC50 of 8 µg/mL (≈ 16.8 µM). Work on `O=c1c(-c2nnc(COc3cccc4ccccc34)o2)cn(C2CC2)c2cc(N3CCNCC3)c(F)cc12` yielded an IC50 of 96.2 µg/mL (≈ 188 µM). `CCn1cc(-c2nnc(COc3ccc4ccccc4c3)o2)c(=O)c2cc(F)c(N3CCNCC3)cc21` was tested, and the IC50 was 80.2 µg/mL (≈ 161 µM). In the case of `CCn1cc(-c2nnc(COc3cccc4ccccc34)o2)c(=O)c2cc(F)c(N3CCNCC3)cc21`, the IC50 is reported as 127 µg/mL (≈ 254 µM). For `O=c1c(-c2nnc(COc3ccccc3)o2)cn(C2CC2)c2cc(N3CCNCC3)c(F)cc12`, the IC50 was 48.6 µg/mL (≈ 105 µM). In the case of `CCn1cc(-c2nnc(-c3ccccc3)o2)c(=O)c2cc(F)c(N3CCNCC3)cc21`, the IC50 is reported as 112 µg/mL (≈ 267 µM). In the case of `O=c1c(-c2nnc(-c3ccc(Nc4ccccc4)cc3)o2)cn(C2CC2)c2cc(N3CCNCC3)c(F)cc12`, the IC50 is reported as 52 µg/mL (≈ 99.5 µM). With `O=c1c(-c2nnc(-c3ccccc3)o2)cn(C2CC2)c2cc(N3CCNCC3)c(F)cc12` the IC50 was 46 µg/mL (≈ 107 µM). Compound `CCn1cc(-c2nnc(-c3ccc(Nc4ccccc4)cc3)o2)c(=O)c2cc(F)c(N3CCNCC3)cc21` has an IC50 of 88.6 µg/mL (≈ 174 µM). Work on `CCn1cc(-c2nnc(Cc3ccccc3)o2)c(=O)c2cc(F)c(N3CCNCC3)cc21` yielded an IC50 of 118 µg/mL (≈ 273 µM). For `CN(C)/N=N/c1[nH]cnc1C(N)=O` [DACARBAZINE], the IC50 was 35 µg/mL (≈ 192 µM). With `CCn1cc(-c2nnc(COc3ccccc3)o2)c(=O)c2cc(F)c(N3CCNCC3)cc21` the IC50 was 76.8 µg/mL (≈ 171 µM). `O=c1c(-c2nnc(COc3ccc4ccccc4c3)o2)cn(C2CC2)c2cc(N3CCNCC3)c(F)cc12` was tested, and the IC50 was 16 µg/mL (≈ 31.3 µM). `O=c1c(-c2nnc(Cc3ccccc3)o2)cn(C2CC2)c2cc(N3CCNCC3)c(F)cc12` was tested, and the IC50 was 86 µg/mL (≈ 193 µM).
